The molecules below were run against T1, histone deacetylase, subtype 1 (HDAC1) (Homo sapiens, UniProt Q13547) (assay: HDAC1-Flag assay (in vitro fluorescent deacetylation assay)). Settings: Table 1, compounds of formula II; epitope-tagged human HDAC1 complex, substrate at Km; mean ± spread (N); read-out: HDAC Inhibition (IC50) nm.
T1 construct: Flag; made in house
Format: biochemical
Procedure: Novel compounds were tested for their ability to inhibit histone deacetylase, subtype 1 (HDAC1) using an in vitro deacetylation assay. The enzyme source for this assay was an epitope-tagged human HDAC1 complex immuno-purified from stably expressing mammalian cells. The substrate consisted of a commercial product containing an acetylated lysine side chain (BIOMOL Research Laboratories, Inc., Plymouth Meeting, Pa.). Upon deacetylation of the substrate by incubation with the purified HDAC1 complex, a fluorophore is produced that is directly proportional to the level of deacetylation.

T1 sequence (Q13547 whole entry): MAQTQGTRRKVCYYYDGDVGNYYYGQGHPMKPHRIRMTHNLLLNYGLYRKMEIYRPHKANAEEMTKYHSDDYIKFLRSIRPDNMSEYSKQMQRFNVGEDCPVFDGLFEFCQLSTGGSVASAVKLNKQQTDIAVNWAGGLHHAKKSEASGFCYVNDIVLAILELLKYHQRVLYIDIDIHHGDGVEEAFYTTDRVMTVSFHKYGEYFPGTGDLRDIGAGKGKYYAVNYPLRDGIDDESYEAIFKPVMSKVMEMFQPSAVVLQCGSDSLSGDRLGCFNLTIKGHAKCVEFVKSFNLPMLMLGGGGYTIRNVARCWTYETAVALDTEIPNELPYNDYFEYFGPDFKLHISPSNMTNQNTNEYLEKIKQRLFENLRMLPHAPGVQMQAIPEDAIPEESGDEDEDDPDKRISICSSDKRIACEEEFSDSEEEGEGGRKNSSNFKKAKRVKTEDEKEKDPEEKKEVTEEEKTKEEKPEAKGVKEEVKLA

Row | Molecule | IC50 [nM]
1 | O=C(CCCCCC(=O)N(CC(=O)Nc1ccc2[nH]ncc2c1)CC(=O)Nc1ccc2[nH]ncc2c1)NO [Compound 1, Heptanedioic acid bis-[(1H-indazol-5-ylcarbamoyl)-methyl]-amide hydroxyamide] | 1
2 | O=C(CCCCCC(=O)N(CC(=O)Nc1ccc2ncccc2c1)CC(=O)Nc1ccc2ncccc2c1)NO [Compound 2, Heptanedioic acid bis-(quinolin-ylcarbamoylmethyl)-amide hydroxyamide] | 5.5 ± 0.7
3 | O=C(CCCCCC(=O)N(CC(=O)Nc1ccc2c(c1)OCCO2)CC(=O)Nc1ccc2c(c1)OCCO2)NO [Compound 5, Heptanedioic acid bis-[(2,3-dihydro-benzo[1,4]dioxin-6-ylcarbamoyl)-methyl]-amide hydroxyamide] | 19
4 | O=C(CCCCCC(=O)N(CC(=O)NCc1ccccc1)CC(=O)Nc1ccccc1)NO [Compound 10, Heptanedioic acid (benzylcarbamoyl-methyl)-phenylcarbamoylmethyl-amide hydroxyamide] | 27.5 ± 10.6
5 | O=C(CCCCCC(=O)N(CC(=O)NCCc1ccccc1)CC(=O)NCCc1ccccc1)NO [Compound 12, Heptanedioic acid bis-(phenethylcarbamoyl-methyl)-amide hydroxyamide] | 58 ± 9.8
6 | O=C(CCCCCC(=O)N(CC(=O)NCc1ccccc1)CC(=O)NCc1ccccc1)NO [Compound 13, Heptanedioic acid bis-(benzylcarbamoyl-methyl)-amide hydroxyamide] | 61.5 ± 6.3

Further lines, results first:

Row | IC50 [nM] | Molecule
7 | 76 ± 14.1 | O=C(CCCCCC(=O)N(CC(=O)NC1CCCCC1)CC(=O)NC1CCCCC1)NO [Compound 14, Heptanedioic acid bis-cyclohexylcarbamoylmethyl-amide hydroxyamide]
8 | 91.5 ± 58.6 | O=C(CCCCCC(=O)N(CC(=O)Nc1ccc(OCc2ccccc2)cc1)CC(=O)Nc1ccc(OCc2ccccc2)cc1)NO [Compound 16, Heptanedioic acid bis-[(4-benzyloxy-phenylcarbamoyl)-methyl]-amide hydroxyamide]
9 | 102 ± 33.2 | O=C(CCCCCCC(=O)N(CC(=O)Nc1ccc2ncccc2c1)CC(=O)Nc1ccc2ncccc2c1)NO [Compound 17, Octanedioic acid bis-(quinolin-6-ylcarbamoylmethyl)-amide hydroxyamide]
10 | 159 ± 159 | O=C(CCCCCC(=O)N(CC(=O)Nc1cccc(OCc2ccccc2)c1)CC(=O)Nc1cccc(OCc2ccccc2)c1)NO [Compound 18, Heptanedioic acid bis-[(3-benzyloxy-phenylcarbamoyl)-methyl]-amide hydroxyamide]
11 | 231 ± 65.5 | O=C(CCCCCCC(=O)N(CC(=O)NCCc1ccccc1)CC(=O)NCCc1ccccc1)NO [Compound 19, Octanedioic acid bis-(phenethylcarbamoyl-methyl)-amide hydroxyamide]
12 | 247 ± 99.9 | O=C(CCCCCCC(=O)N(CC(=O)NCc1ccccc1)CC(=O)NCc1ccccc1)NO [Compound 20, Octanedioic acid bis-(benzylcarbamoyl-methyl)-amide hydroxyamide]
13 | 539 ± 97 | O=C(CCCCCCC(=O)N(CC(=O)NC1CCCCC1)CC(=O)NC1CCCCC1)NO [Compound 21, Octanedioic acid bis-cyclohexylcarbamoylmethyl-amide hydroxyamide]
14 | 848 ± 481 | O=C(CCCCCCC(=O)N(CC(=O)Nc1ccc(OCc2ccccc2)cc1)CC(=O)Nc1ccc(OCc2ccccc2)cc1)NO [Compound 22, Octanedioic acid bis-[(4-benzyloxy-phenylcarbamoyl)-methyl]-amide hydroxyamide]
15 | 861 ± 403 | O=C(CCCCCCC(=O)N(CC(=O)Nc1cccc(OCc2ccccc2)c1)CC(=O)Nc1cccc(OCc2ccccc2)c1)NO [Compound 23, Octanedioic acid bis-[(3-benzyloxy-phenylcarbamoyl)-methyl]-amide hydroxyamide]

Same assay, conditions: Table 2, compounds of formula III; epitope-tagged human HDAC1 complex, substrate at Km; mean ± spread (N); read-out: HDAC Inhibition (IC50) nm

Row | IC50 [nM] | Molecule
16 | 153 ± 29.6 | 6-{Bis-[2-(3,4-dihydro-1H-isoquinolin-2-yl)-2-oxo-ethyl]-amino}-hexanoic acid hydroxyamide [Compound 46]

Same assay, conditions: Table 3, compounds of formula IV; epitope-tagged human HDAC1 complex, substrate at Km; mean ± spread (N); read-out: HDAC Inhibition (IC50) nm

Row | IC50 [nM] | Molecule
17 | 36.5 ± 4.9 | 8-[4-(4-Chloro-phenyl)-piperazin-1-yl]-8-oxo-octanoic acid hydroxyamide [Compound 78]

Reference: patent US20090023718A1 (Aton Pharma, Inc., priority 2003, published 2009)
